Assay results published in ChEMBL document CHEMBL1129399, “N-aryl-3,3,3-trifluoro-2-hydroxy-2-methylpropanamides: KATP potassium channel openers. Modifications on the western region” (J Med Chem, 1996).

Experiments:
Rattus norvegicus [1] = assay: In vivo activity was evaluated by measuring heart rate(HR) after 1 hour; assay type: functional
Rattus norvegicus [2] = assay: In vivo activity was evaluated by measuring heart rate(HR) after 3 hours; assay type: functional
Rattus norvegicus [3] = assay: In vivo activity was evaluated by measuring heart rate(HR) after 5 hours; assay type: functional
Rattus norvegicus [4] = assay: In vivo activity was evaluated by measuring interval between bladder contractions (IC) after 1 hour; assay type: functional
Rattus norvegicus [5] = assay: In vivo activity was evaluated by measuring interval between bladder contractions (IC) after 3 hours; assay type: functional
Rattus norvegicus [6] = assay: In vivo activity was evaluated by measuring interval between bladder contractions (IC) after 5 hours; assay type: functional
Rattus norvegicus [7] = assay: In vivo activity was evaluated by measuring mean arterial pressure(MAP) after 1 hour; assay type: functional, Artery
Rattus norvegicus [8] = assay: In vivo activity was evaluated by measuring mean arterial pressure(MAP) after 3 hours; assay type: functional, Artery
Rattus norvegicus [9] = assay: In vivo activity was evaluated by measuring mean arterial pressure(MAP) after 5 hours; assay type: functional, Artery
Rattus norvegicus [10] = assay: in vivo activity was evaluated by measuring mean arterial pressure(MAP) after 1 hour.; assay type: functional, Artery
Rattus norvegicus [11] = assay: in vivo activity was evaluated by measuring mean arterial pressure(MAP) after 3 hour.; assay type: functional, Artery
Rattus norvegicus [12] = assay: in vivo activity was evaluated by measuring mean arterial pressure(MAP) after 5 hour.; assay type: functional, Artery
Rattus norvegicus [13] = assay: in vivo activity was evaluated by measuring heart rate(HR) after 1 hour.; assay type: functional
Rattus norvegicus [14] = assay: in vivo activity was evaluated by measuring heart rate(HR) after 3 hour.; assay type: functional
Rattus norvegicus [15] = assay: in vivo activity was evaluated by measuring heart rate(HR) after 5 hour.; assay type: functional
Rattus norvegicus [16] = assay: in vivo activity was evaluated by measuring interval between bladder contractions (IC) after 3 hour.; assay type: functional
Rattus norvegicus [17] = assay: in vivo activity was evaluated by measuring interval between bladder contractions (IC) after 5 hour.; assay type: functional
Rattus norvegicus [18] = assay: in vivo activity was evaluated by measuring interval between bladder contractions (IC) after 1 hour.
Rattus norvegicus [19] = assay: In vivo activity was evaluated by measuring mean arterial pressure(MAP) after 1 hour.; assay type: functional, Artery
Rattus norvegicus [20] = assay: In vivo activity was evaluated by measuring mean arterial pressure(MAP) after 3 hour.; assay type: functional, Artery
Rattus norvegicus [21] = assay: In vivo activity was evaluated by measuring mean arterial pressure(MAP) after 5 hour.; assay type: functional, Artery
Rattus norvegicus [22] = assay: In vivo activity was evaluated by measuring heart rate(HR) after 1 hour.; assay type: functional
Rattus norvegicus [23] = assay: In vivo activity was evaluated by measuring heart rate(HR) after 3 hour.; assay type: functional
Rattus norvegicus [24] = assay: In vivo activity was evaluated by measuring interval between bladder contractions (IC) after 1 hours; assay type: functional
Rattus norvegicus [25] = assay: In vivo activity was evaluated by measuring interval between bladder contractions (IC) after 3 hour.; assay type: functional
Rattus norvegicus [26] = assay: In vivo activity was evaluated by measuring interval between bladder contractions (IC) after 5 hour.; assay type: functional
Rattus norvegicus [27] = assay: in vivo activity was evaluated by measuring interval between bladder contractions (IC) after 1 hour.; assay type: functional
Rattus norvegicus [28] = assay: In vivo activity was evaluated by measuring mean arterial pressure (MAP) after 1 hour.; assay type: functional, Artery
Rattus norvegicus [29] = assay: In vivo activity was evaluated by measuring heart rate(HR) after 5 hour.; assay type: functional
Rattus norvegicus [30] = assay: In vivo activity was evaluated by measuring interval between bladder contractions (IC) after 1 hour.; assay type: functional

| Structure (SMILES) | Delta MAP (Rattus norvegicus [10]) [%] | Delta MAP (Rattus norvegicus [11]) [%] | Delta MAP (Rattus norvegicus [12]) [%] | Delta HR (Rattus norvegicus [13]) [%] | Delta HR (Rattus norvegicus [14]) [%] | Delta HR (Rattus norvegicus [15]) [%] | Delta IC (Rattus norvegicus [16]) [%] | Delta IC (Rattus norvegicus [17]) [%] | Delta IC (Rattus norvegicus [27]) [%] | also measured |
| --- | --- | --- | --- | --- | --- | --- | --- | --- | --- | --- |
| CC(O)(C(=O)Nc1ccc(S(=O)(=O)c2ccccc2)cc1)C(F)(F)F (stereo unspecified) |  |  |  |  |  |  |  |  |  | Delta HR (Rattus norvegicus [1]): 32%; Delta HR (Rattus norvegicus [2]): 27%; Delta HR (Rattus norvegicus [3]): -22%; Delta IC (Rattus norvegicus [4]): 24%; Delta IC (Rattus norvegicus [5]): 79%; Delta IC (Rattus norvegicus [6]): 97%; Delta MAP (Rattus norvegicus [7]): -25%; Delta MAP (Rattus norvegicus [8]): -24%; Delta MAP (Rattus norvegicus [9]): 23% |
| Cc1cc(C(=O)c2ccccc2)ccc1NC(=O)C(C)(O)C(F)(F)F (stereo unspecified) | -3 | -4 | -4 | 0 | -1 | 1 | 50 | 71 |  | Delta IC (Rattus norvegicus [18]): 26% |
| CC1(C)Oc2ccc(C#N)cc2[C@@H](N2CCCC2=O)[C@@H]1O [CROMAKALIM] |  |  |  |  |  |  |  |  |  | Delta MAP (Rattus norvegicus [19]): -18%; Delta MAP (Rattus norvegicus [20]): -14%; Delta MAP (Rattus norvegicus [21]): -12%; Delta HR (Rattus norvegicus [22]): 20%; Delta HR (Rattus norvegicus [23]): 13%; Delta IC (Rattus norvegicus [24]): 54%; Delta IC (Rattus norvegicus [25]): 104%; Delta IC (Rattus norvegicus [26]): 114%; Delta HR (Rattus norvegicus [3]): 9% |
| CC(O)(C(=O)Nc1ccc(S(=O)(=O)c2cccnc2)cc1)C(F)(F)F (stereo unspecified) | -16 | -14 | -11 | 19 | 3 | -2 | 83 | 125 | 64 |  |
| CC(O)(C(=O)Nc1ccc(S(=O)(=O)c2ccncc2)c(O)c1)C(F)(F)F (stereo unspecified) | 1 | 1 | -4 | 2 | 2 | 6 | 42 | 95 | 25 |  |
| CC(O)(C(=O)Nc1ccc(S(=O)(=O)c2ccncc2)cc1)C(F)(F)F (stereo unspecified) | 4 | 5 | 1 | 5 | 1 | 0 | 76 | 76 | 20 |  |
| CC(O)(C(=O)Nc1ccc(C(=O)c2ccccc2)cc1)C(F)(F)F (stereo unspecified) |  |  |  |  |  |  |  |  |  | Delta MAP (Rattus norvegicus [28]): -1%; Delta MAP (Rattus norvegicus [20]): 1%; Delta MAP (Rattus norvegicus [21]): 2%; Delta HR (Rattus norvegicus [22]): 2%; Delta HR (Rattus norvegicus [23]): -3%; Delta HR (Rattus norvegicus [29]): -4%; Delta IC (Rattus norvegicus [30]): 35%; Delta IC (Rattus norvegicus [25]): 73%; Delta IC (Rattus norvegicus [26]): 128% |
| CC(O)(C(=O)Nc1ccc(C(=O)c2cccc(F)c2)cc1)C(F)(F)F (stereo unspecified) | 4 | 2 | 1 | 9 | 4 | 6 | 56 | 61 |  | Delta IC (Rattus norvegicus [18]): 25% |
| CN(c1ccccc1)S(=O)(=O)c1ccc(NC(=O)C(C)(O)C(F)(F)F)cc1 (stereo unspecified) | -1 | -3 | -4 | -1 | 4 | 1 | 33 | 56 | 30 |  |
